We go through one compound from ChEMBL document CHEMBL1121373, “Synthesis and antifertility activity of 3,9-dihydroxy-5,6,6a alpha,6b beta,11,12,12a beta,12b alpha-octahydrodibenzo[a,g]biphenylene, a structural relative of diethylstilbestrol” (1980).

Test [1] concerns the target Estrogen receptor (Rattus norvegicus) (UniProt P06211+Q62986). Put plainly: Estrogenic activity in uterotrophic assay in rats on oral administration relative to diethylstilbestrol. It counts as functional, organism-based.
The species named for a further test is Rattus norvegicus. The experiment in a line: Effective dose for antifertility activity in rats. It counts as functional.

Each structure is given as a SMILES string.

As for `Oc1ccc2c(c1)CCC1C2C2CCc3cc(O)ccc3C12` (configuration not stated), the Potency in test [1] is 16%. In the test listed under Rattus norvegicus, this compound displayed an ED100 of 100 µg/day/kg.
